BigSolDB 2.1

Conditions: 298.15 K

Structure (SMILES) | solubility (mole fraction) (in acetone) | solubility (mole fraction) (in acetonitrile) | solubility (mole fraction) (in chlorobenzene) | solubility (mole fraction) (in chloroform) | solubility (mole fraction) (in ethanol) | solubility (mole fraction) (in n-hexane) | solubility (mole fraction) (in tetrachloromethane) | solubility (mole fraction) (in cyclohexane) | solubility (mole fraction) (in ethyl acetate) | solubility (mole fraction) (in ethylene glycol) | solubility (mole fraction) (in isopropanol) | solubility (mole fraction) (in methanol) | solubility (mole fraction) (in n-heptane) | solubility (mole fraction) (in n-pentane) | solubility (mole fraction) (in n-propanol) | solubility (mole fraction) (in toluene)
c1ccc2cc3ccccc3cc2c1 | 0.00318 | 0.000765 | 0.00946 | 0.00995 | 0.000428 | 0.0012 | 0.00481 | – | – | – | – | – | – | – | – | –
O=C(O)c1cccnc1Nc1cccc(C(F)(F)F)c1 | 0.0288 | 0.00131 | 0.000297 | 0.00166 | 0.0138 | 5.35e-06 | 7.06e-05 | – | – | – | – | – | – | – | – | –
c1ccc2cc3cc4ccccc4cc3cc2c1 | 3.27e-05 | 7.97e-06 | 0.00014 | 0.000132 | 6.91e-06 | 1.5e-05 | 4.61e-05 | – | – | – | – | – | – | – | – | –
c1ccc(N(c2ccc(-c3ccc(N(c4ccccc4)c4cccc5ccccc45)cc3)cc2)c2cccc3ccccc23)cc1 | 2.11e-05 | 1.56e-06 | 0.00131 | 0.00268 | 5.59e-07 | 3.15e-06 | 0.000234 | – | – | – | – | – | – | – | – | –
c1cc2cccc3c4cccc5cccc(c(c1)c23)c54 | 0.000301 | 4.68e-05 | 0.00177 | 0.00134 | 2.42e-05 | 5.53e-05 | 0.000444 | – | – | – | – | – | – | – | – | –
c1ccc2c(c1)c1ccccc1n2-c1ccc(-c2ccc(-n3c4ccccc4c4ccccc43)cc2)cc1 | 0.000153 | 7.54e-06 | 0.00491 | 0.0083 | 2.25e-06 | 9.41e-06 | 0.000997 | – | – | – | – | – | – | – | – | –
COc1ccc2c(c1)c(CC(=O)O)c(C)n2C(=O)c1ccc(Cl)cc1 | 0.0234 | 0.00239 | 0.0023 | 0.00876 | 0.00441 | 4.84e-07 | 4.2e-05 | 1.87e-05 | 0.0111 | 0.000509 | 0.00465 | 0.00228 | 6.13e-07 | 3.31e-07 | 0.00433 | 0.000908
